Results taken from US20240033370A1, “ANTI-PD-L1 IMMUNOCONJUGATES, AND USES THEREOF” (BOLT BIOTHERAPEUTICS, INC., priority 2020, published 2024).

Experiments:
[1] = target: human TLR7 (Homo sapiens (Human), UniProt Q9NYK1); assay: HEK293 NFKB reporter assay, human TLR7; type: cell-based; settings: HEK293 reporter cells expressing human TLR7; read-out: HEK293 hTLR7 EC50
Procedure: (§1) Each compound was synthesized, purified, and characterized by mass spectrometry and shown to have the mass indicated. Additional experimental procedures are found in the Examples. Activity against HEK293 NFKB reporter cells expressing human TLR7 or human TLR8 was measured according to Example 202.
(§2) HEK293 reporter cells expressing human TLR7 or human TLR8 were purchased from Invivogen and vendor protocols were followed for cellular propagation and experimentation. Briefly, cells were grown to 80-85% confluence at 5% CO2 in DMEM supplemented with 10% FBS, Zeocin, and Blasticidin. Cells were then seeded in 96-well flat plates at 4×10^4 cells/well with substrate containing HEK detection medium and immunostimulatory molecules. Activity was measured using a plate reader at 620-655 nm wavelength.

[2] = target: human TLR8 (Homo sapiens (Human), UniProt Q9NR97); assay: HEK293 NFKB reporter assay, human TLR8; type: cell-based; settings: HEK293 reporter cells expressing human TLR8; read-out: HEK293 hTLR8 EC50
Procedure: as §1, §2

Chain of human TLR8 (Q9NR97 27-1041): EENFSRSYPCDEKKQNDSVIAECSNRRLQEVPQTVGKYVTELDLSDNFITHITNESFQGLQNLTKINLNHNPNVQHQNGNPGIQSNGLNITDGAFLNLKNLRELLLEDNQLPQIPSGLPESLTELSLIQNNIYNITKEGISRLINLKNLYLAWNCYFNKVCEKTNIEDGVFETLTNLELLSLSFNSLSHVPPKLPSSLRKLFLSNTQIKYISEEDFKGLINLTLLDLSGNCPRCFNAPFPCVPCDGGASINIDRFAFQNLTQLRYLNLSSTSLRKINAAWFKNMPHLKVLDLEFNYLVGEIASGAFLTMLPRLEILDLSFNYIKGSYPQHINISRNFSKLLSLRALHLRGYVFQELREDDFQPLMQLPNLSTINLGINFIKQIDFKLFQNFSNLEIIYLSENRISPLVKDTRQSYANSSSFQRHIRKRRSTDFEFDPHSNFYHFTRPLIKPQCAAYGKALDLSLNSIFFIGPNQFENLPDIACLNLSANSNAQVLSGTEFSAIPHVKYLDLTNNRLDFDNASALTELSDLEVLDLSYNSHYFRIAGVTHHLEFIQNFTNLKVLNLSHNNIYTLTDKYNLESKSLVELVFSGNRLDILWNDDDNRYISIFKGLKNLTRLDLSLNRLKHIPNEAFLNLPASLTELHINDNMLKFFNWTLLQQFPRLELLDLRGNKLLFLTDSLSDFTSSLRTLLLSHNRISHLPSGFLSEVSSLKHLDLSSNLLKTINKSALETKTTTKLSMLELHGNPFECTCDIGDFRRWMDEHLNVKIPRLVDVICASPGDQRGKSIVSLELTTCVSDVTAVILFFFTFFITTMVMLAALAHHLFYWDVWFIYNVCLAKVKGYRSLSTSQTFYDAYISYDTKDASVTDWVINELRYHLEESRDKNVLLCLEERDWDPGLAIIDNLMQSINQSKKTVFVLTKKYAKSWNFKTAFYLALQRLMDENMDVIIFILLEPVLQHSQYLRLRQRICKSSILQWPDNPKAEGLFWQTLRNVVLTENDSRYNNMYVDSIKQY
Chain of human TLR7 (Q9NYK1 27-1049): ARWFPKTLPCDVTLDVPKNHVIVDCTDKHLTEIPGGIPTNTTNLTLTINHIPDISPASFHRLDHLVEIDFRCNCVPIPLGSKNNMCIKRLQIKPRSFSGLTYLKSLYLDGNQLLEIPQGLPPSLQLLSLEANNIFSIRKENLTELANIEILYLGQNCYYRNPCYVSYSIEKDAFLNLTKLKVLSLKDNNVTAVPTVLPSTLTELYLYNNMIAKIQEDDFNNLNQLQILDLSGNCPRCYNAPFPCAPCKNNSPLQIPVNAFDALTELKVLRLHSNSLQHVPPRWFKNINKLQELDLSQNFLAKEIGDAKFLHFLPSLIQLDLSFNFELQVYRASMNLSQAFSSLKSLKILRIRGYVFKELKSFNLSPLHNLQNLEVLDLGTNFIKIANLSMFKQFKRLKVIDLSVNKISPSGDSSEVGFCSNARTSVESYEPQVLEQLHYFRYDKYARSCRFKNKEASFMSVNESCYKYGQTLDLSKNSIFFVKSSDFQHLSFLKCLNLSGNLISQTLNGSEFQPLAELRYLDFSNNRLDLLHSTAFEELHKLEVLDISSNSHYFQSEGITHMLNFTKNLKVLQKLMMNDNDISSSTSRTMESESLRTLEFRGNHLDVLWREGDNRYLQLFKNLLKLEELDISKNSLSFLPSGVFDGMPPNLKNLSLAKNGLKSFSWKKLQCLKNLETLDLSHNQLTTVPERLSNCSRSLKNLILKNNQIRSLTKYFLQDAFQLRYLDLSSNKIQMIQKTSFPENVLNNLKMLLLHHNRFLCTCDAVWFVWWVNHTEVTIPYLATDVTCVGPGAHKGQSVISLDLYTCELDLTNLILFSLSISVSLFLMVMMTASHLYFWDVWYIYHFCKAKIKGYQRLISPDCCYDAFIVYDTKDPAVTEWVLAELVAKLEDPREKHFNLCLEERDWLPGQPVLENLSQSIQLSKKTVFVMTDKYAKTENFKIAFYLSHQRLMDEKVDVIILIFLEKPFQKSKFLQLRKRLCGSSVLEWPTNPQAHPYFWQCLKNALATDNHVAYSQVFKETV

Structure (SMILES) | EC50 [1] [µM] | EC50 [2] [µM]
CCCN(OCCNC(=O)OC1CCC1)C(=O)C1=Cc2ccc(-c3cccc(S(=O)(=O)N4CC(CN)C4)c3)cc2N=C(N)C1 [CycBz-60] | 0.738 | 0.163
CCCN(C(=O)C1=Cc2ccc(-c3cnc(CN)nc3)cc2N=C(N)C1)[C@H]1C[C@H](NC(=O)OC2CCC2)C1 [CycBz-44] | 9 | 
CCCN(OCC)C(=O)C1=Cc2ccc(-c3ccc(C(=O)OC)cc3)cc2N=C(N)C1 [CycBz-52] | 5.76 | 0.629
CCCN(OCC)C(=O)C1=Cc2ccc(-c3cc(CN)ncn3)cc2N=C(N)C1 [CycBz-48] | 9 | 2.16
CCCN(OCCNC(=O)NC1COC1)C(=O)C1=Cc2ccc(-c3cnc(CN)nc3)cc2N=C(N)C1 [CycBz-17] | 9 | 9
CCCN(CCCCO)C(=O)C1=Cc2ccc(-c3cccc(S(=O)(=O)N4CC(CN)C4)c3)cc2N=C(N)C1 [CycBz-62] | 9 | 4.66
CCCN(OCC)C(=O)C1=Cc2ccc(-c3ccc(C(=O)N4CCC[C@H]4C(=O)OC)cc3)cc2N=C(N)C1 [CycBz-59] | 0.047 | 0.006
CCCN(OCC)C(=O)C1=Cc2ccc(-c3cccc(S(=O)(=O)N4CC(CNC(=O)C5CCNCC5)C4)c3)cc2N=C(N)C1 [CycBz-51] | 9 | 4.19
CCCN(OCC(F)(F)F)C(=O)C1=Cc2ccc(-c3cccc(S(=O)(=O)N4CC(CN)C4)c3)cc2N=C(N)C1 [CycBz-49] | 3.93 | 0.461
CCCN(CCO)C(=O)C1=Cc2ccc(-c3cccc(S(=O)(=O)N4CC(CN)C4)c3)cc2N=C(N)C1 [CycBz-68] | 9 | 4.91
CCCN(OCC)C(=O)C1=Cc2ccc(-c3ccc(C(=O)N4CCCC4)cc3)cc2N=C(N)C1 [CycBz-67] | 3.01 | 0.256
CCCN(OCC)C(=O)C1=Cc2ccc(-c3ncc(CN)cn3)cc2N=C(N)C1 [CycBz-10] | 9 | 
CCCN(CC1CNC(=O)CO1)C(=O)C1=Cc2ccc(-c3cnc(CN)nc3)cc2N=C(N)C1 (centres unmarked) [CycBz-42] | 9 | 9
CCCN(CCCO)C(=O)C1=Cc2ccc(-c3cccc(S(=O)(=O)N4CC(CN)C4)c3)cc2N=C(N)C1 [CycBz-63] | 9 | 3.61
CCCN(OCC)C(=O)C1=Cc2ccc(-c3ccc(C(=O)N4CCC(N)C4)cc3)cc2N=C(N)C1 (centres unmarked) [CycBz-54] | 3.09 | 0.86
CCCN(CCCO)C(=O)C1=Cc2ccc(-c3cccc(S(=O)(=O)N4CC(CNC(=O)OC(C)(C)C)C4)c3)cc2N=C(N)C1 [CycBz-58] | 7.15 | 0.374

The remaining compounds from weak to strong by EC50 [1], led by results:

EC50 [1] [µM] | EC50 [2] [µM] | Structure (SMILES)
9 |  | CCCN(OCCO)C(=O)C1=Cc2ccc(-c3cncc(S(=O)(=O)N4CC(CN)C4)c3)cc2N=C(N)C1 [CycBz-43]
9 | 9 | CCCN(CCCNC(N)=O)C(=O)C1=Cc2ccc(-c3cccc(S(=O)(=O)N4CC(CN)C4)c3)cc2N=C(N)C1 [CycBz-70]
9 |  | CCCN(OCC1COC(=O)N1)C(=O)C1=Cc2ccc(-c3cnc(CN)nc3)cc2N=C(N)C1 (centres unmarked) [CycBz-46]
9 | 9 | CCCN(CCCO)C(=O)C1=Cc2ccc(-c3cnc(CN)nc3)cc2N=C(N)C1 [CycBz-26]
9 |  | CCCN(CC1CNC(=O)O1)C(=O)C1=Cc2ccc(-c3cnc(CN)nc3)cc2N=C(N)C1 (centres unmarked) [CycBz-25]
4.75 | 0.086 | CCCN(OCC)C(=O)C1=Cc2ccc(-c3ccc(C(=O)N[C@H](C)C(=O)OC(C)(C)C)cc3)cc2N=C(N)C1 [CycBz-75]
3.68 | 0.377 | CCCN(OCC)C(=O)C1=Cc2ccc(-c3ccc(C(=O)N4CCC(NC(=O)OC(C)(C)C)C4)cc3)cc2N=C(N)C1 (centres unmarked) [CycBz-55]
3.43 | 0.097 | CCCN(OCC)C(=O)C1=Cc2ccc(-c3ccc(C(=O)N4CCC[C@@H]4C(=O)OC)cc3)cc2N=C(N)C1 [CycBz-64]
2.31 | 1.56 | CCCN(CCCNC(=O)OC1CCC1)C(=O)C1=Cc2ccc(-c3cccc(S(=O)(=O)N4CC(CN)C4)c3)cc2N=C(N)C1 [CycBz-65]
1.92 | 0.012 | CCCN(OCC)C(=O)C1=Cc2ccc(-c3ccc(C(=O)N[C@@H](C)C(=O)OC(C)(C)C)cc3)cc2N=C(N)C1 [CycBz-74]
